Patent publication US8491891B2, “Human beta-glucuronidase mutants with elevated enzymatic activity under physiological conditions and method for identifying such” (Academia Sinica, priority 2008, dated 2013)
pIC50: −log10 of the molar value.

How the values were obtained:
EJ tumor xenografts = experiment: Anti-tumor effect of CPT-11 on EJ xenografts; type: in vivo, Beige-SCID mice; settings: EJ tumors, dose of 10 mg/kg, i.v. on two consecutive days
Description: (§1) Three to four month old Beige-SCID female mice were used in this study. The mice were maintained under SPF conditions and were fed a standard laboratory diet with free access to food and water, under artificial circadian rhythm. EJ or EJ/mβG cells were injected into the mice subcutaneously in their right flank to form tumor xenografts.

[1] = Intratumoral concentrations of CPT-11, SN-38 and SN-38G after CPT-11 treatment (SPE-HPLC)
Description: Tumors were collected 2, 8 and 24 h after CPT treatment, immediately dispersed in ice-cold acidic methanol (methanol: water: perchloric acid=20:20:1), and homogenized 60 sec on an Ultraturax tissue homogenizer at 20,000 rpm. The samples were clarified by centrifugation at 15,000 g for 5 min at 4° C. Supernatants were diluted with 0.1 M KH2PO4 and then separated by SPE-HPLC on a μBondapack column with 27% acetonitrile in 0.1 M potassium phosphate buffer pH=2.6. […] These three analytes were quantified by comparison with standard curves generated with analyte concentrations ranging from 2.0 pg to 200 ng.

[2] = tested on: EJ human bladder carcinoma cells; experiment: Sensitivity of EJ cells to CPT-11, SN-38, SN-38G (3H-thymidine incorporation); settings: read-out: IC50 (cytotoxicity), 24 h exposure, pH not stated
[3] = Serum concentrations of CPT-11, SN-38 and SN-38G after CPT-11 administration
EJ/mβG cells = experiment: Sensitivity of EJ/mβG cells to CPT-11, SN-38, SN-38G (3H-thymidine incorporation); settings: read-out: IC50 (cytotoxicity); EJ/mβG cells, 24 h exposure, pH not stated
EJ/mβG tumor xenografts = experiment: Anti-tumor effect of CPT-11 on EJ/mβG xenografts; type: in vivo, Beige-SCID mice; settings: EJ/mβG tumors, dose of 10 mg/kg, i.v. on two consecutive days
Description: as §1

[4] = 24 h after CPT-11 10 mg/kg i.v.

With `CCc1c2c(nc3ccc(OC(=O)N4CCC(N5CCCCC5)CC4)cc13)-c1cc3c(c(=O)n1C2)COC(=O)[C@]3(O)CC` [CPT-11] the “Delay of tumor growth” value (EJ tumor xenografts) was “did not significantly delay”, the “Intratumoral concentrations in EJ versus EJ/mβG tumors” value ([1]; 2, 8 and 24 h) was “identical” and the “Concentration in EJ xenografts” value ([1]; 2 h after CPT-11 10 mg/kg i.v.) was 1350 ± 200 ng drug/g tumor. For the same compound, the “Concentration in EJ/mβG xenografts” value ([1]; 2 h after CPT-11 10 mg/kg i.v.) was 1500 ± 230 ng drug/g tumor, the “Concentration in EJ xenografts” value ([1]; 8 h after CPT-11 10 mg/kg i.v.) was 87 ± 17 ng drug/g tumor and the “Concentration in EJ/mβG xenografts” value ([1]; 8 h after CPT-11 10 mg/kg i.v.) was 77 ± 178 ng drug/g tumor. The “Concentration in EJ xenografts” value [1, 4] was 0.58 ± 0.09 ng drug/g tumor, the “Concentration in EJ/mβG xenografts” value [1, 4] was 0.63 ± 0.11 ng drug/g tumor and the pIC50 [2] was roughly 5.68. For the same compound, the “Serum levels in mice bearing EJ versus EJ/mβG tumor” value ([3]; 2 h after CPT-11 administration) was “similar”, the “Serum concentrations in mice bearing EJ versus EJ/mβG tumor” value ([3]; 8 h or 24 h after CPT-11 administration) was “no significant differences” and the pIC50 (EJ/mβG cells) was roughly 5.68. For the same compound, the “Delay of tumor growth” value (EJ/mβG tumor xenografts) was “significantly delayed”.
